The values that follow come from US20110098296A1, “Thiazole And Oxazole Kinase Inhibitors” (priority 2007, published 2011).

One experiment addresses T1, EGFR (Homo sapiens, UniProt P00533).
T1 construct: made in house; host or cells: baculovirus expression system
The experiment is described as follows: EGFR substrate phosphorylation assay (HTRF). The format is biochemical. To be noted: Method (A): Enzyme Mix incubated with compound at 20° C. for 1 hr, reaction started by adding Substrate Mix. The method in brief: (§1)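 Baculovirus-expressed kinase (0.8 nM EGFR or 10 nM ErbB2 in enzyme mix) with Peptide C 0.8 μM and ATP 20 μM (substrate-mix levels), MOPS pH 7.5, MnCl2; 90 min, 20 °C, HTRF anti-phosphotyrosine. Method A adds 1 h enzyme–compound preincubation; B none. pIC50, final compound 0.00027–47.6 μM.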
On the technique in general: TR-FRET usually uses a lanthanide donor and a delayed reading to cut background.

For the next experiment, the system named is SK-MEL-28 tumor cells. Description: Method C: Cell Growth Inhibition Assay (CellTiter-Glo), SK-MEL-28. The format is cell-based. To be noted: Homo sapiens, SK-MEL-28, 72 h, 3 days, 4-parameter fit. The method in brief:
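Luminescent ATP signal (CellTiter-Glo, after 30 min room-temperature equilibration) served as a surrogate for cell number after a 3-day compound exposure at 37° C. Cells were plated at 500/well and treated with serially diluted compound at 0.2% DMSO. IC50 values are 4-parameter fits against DMSO-treated wells.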

A further experiment concerns the target T2, ErbB2 (Homo sapiens, UniProt P04626).
T2 construct: made in house; host or cells: baculovirus expression system
Description: ErbB-2 substrate phosphorylation assay (HTRF). The format is biochemical. To be noted: Method (A): Enzyme Mix incubated with compound at 20° C. for 1 hr, reaction started by adding Substrate Mix. In short, it runs like this:
as §1

In experiment [1] the test system is Colo205 tumor cells. Description: Method C: Cell Growth Inhibition Assay (CellTiter-Glo), Colo205. The format is cell-based. To be noted: Homo sapiens, COLO 205, 72 h, 3 days, 4-parameter fit. In short, it runs like this:
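500 cells/well; next-day compound, 1:3 serial dilutions, 0.2% DMSO final; 3 d, 37° C, 5% CO2. Readout: CellTiter-Glo luminescence (total ATP as cell-number surrogate). IC50 from 4-parameter fit of % growth inhibition vs vehicle.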
On the technique in general: In ATP-based viability assays light output follows the ATP content of the culture.

The target of the next experiment is B-Raf (Homo sapiens, UniProt P15056). The experiment is described as follows: B-Raf Accelerated MEK ATPase assay (BRAMA). Type of experiment: biochemical. To be noted: Method (A): BRAMA, kinetic read. The method, then: Compounds of the present invention were tested for B-Raf protein serine kinase inhibitory activity in a B-Raf Accelerated MEK ATPase assay (BRAMA). The BRAMA assay is a high sensitivity assay which measures an intrinsic MEK-mediated ATP hydrolysis uncoupled from downstream ERK phosphorylation by coupling the formation of ADP to NADH oxidation through the enzymes pyruvate kinase and lactate dehydrogenase. When ADP production is initiated by addition of catalytic amounts of an activated Raf enzyme and non-phosphorylated MEK, one observes robust ADP production concomitant with Raf-mediated phosphorylation of MEK.
B-Raf, sequence (P15056 whole entry): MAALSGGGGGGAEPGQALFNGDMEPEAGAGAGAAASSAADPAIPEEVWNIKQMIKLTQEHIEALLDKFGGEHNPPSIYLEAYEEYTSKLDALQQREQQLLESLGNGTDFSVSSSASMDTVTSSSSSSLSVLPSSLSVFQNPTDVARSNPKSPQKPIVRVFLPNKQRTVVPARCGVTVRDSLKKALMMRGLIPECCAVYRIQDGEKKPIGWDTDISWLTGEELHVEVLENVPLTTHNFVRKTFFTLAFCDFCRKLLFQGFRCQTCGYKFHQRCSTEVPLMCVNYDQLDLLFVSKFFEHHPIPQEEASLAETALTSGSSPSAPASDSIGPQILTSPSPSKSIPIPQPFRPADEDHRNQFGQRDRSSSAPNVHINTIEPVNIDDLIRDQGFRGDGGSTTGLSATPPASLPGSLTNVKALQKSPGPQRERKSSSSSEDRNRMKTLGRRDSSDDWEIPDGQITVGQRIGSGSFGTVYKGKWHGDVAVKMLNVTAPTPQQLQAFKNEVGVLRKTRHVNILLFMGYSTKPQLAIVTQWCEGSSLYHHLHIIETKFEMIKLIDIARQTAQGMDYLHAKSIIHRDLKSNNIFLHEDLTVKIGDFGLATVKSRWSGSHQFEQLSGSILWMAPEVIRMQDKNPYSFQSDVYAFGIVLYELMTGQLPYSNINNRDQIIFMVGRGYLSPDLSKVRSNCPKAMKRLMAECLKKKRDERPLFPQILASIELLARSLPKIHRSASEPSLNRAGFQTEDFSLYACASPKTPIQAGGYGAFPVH
Method A: Specific details of the assay are disclosed in: C. Rominger, M. Schaber, E. May. Assay for B-Raf Activity Based on Intrinsic MEK ATPase Activity. Statutory Invention Registration Ser. No. 11/084,993 (March, 2005). Method B: The method is the same as method A, but includes the following changes: 1) the assay was performed with a final MEK concentration of 150 nM and 2) the assay was read as single end point instead of a kinetic read.

Experiment [2] concerns Colo205 tumor cells. The experiment is described as follows: Method B: CellTiter-Glo Growth Inhibition Assay, Colo205. To be noted: Homo sapiens, COLO 205, 72 h, 3 days. The format is cell-based. The procedure:
(§2) Human breast tumor cells (BT474) were cultured in RPMI, (Invitrogen, 22400) containing 10% fetal bovine serum (FBS). Human head and neck tumor cells (HN5) were cultured in low glucose DMEM (Invitrogen, 12320) containing 10% FBS. Human colon tumor cells (Colo205) were cultured in DMEM (Invitrogen, 10564) containing 10% FBS. Human melanoma cancer cells (SK-MEL-28) were incubated in DMEM (Invitrogen). All cell lines were maintained at 37° C. in a humidified 5% CO2, 95% air incubator. Cells were harvested using trypsin/EDTA, counted using a haemocytometer, and plated in 30 μL of the appropriate media described above, at the following densities, in a half-area, black-walled, 96-well tissue culture plate (Corning 3882): BT474 3,000 cells/well, HN5 500 cells/well, Colo205 3,000 cells/well, and SK-MEL-28 500 cells/well). The next day, compounds were diluted in DMEM containing […] gentamicin, from 10 mM stock solutions in DMSO. 30 μL/well of these dilutions were added to the 30 μL/well of media currently on the cell plates. Medium containing 0.6% DMSO was added to control wells. The final concentration of DMSO in all wells was 0.3%. Cells were incubated at 37° C., 5% CO2 for 3 days. Cell biomass was estimated using CellTiter-Glo® reagent (Promega G7571). Briefly, plates were removed from the incubator and allowed to equilibrate to rt for 30 minutes. 25-60 μL of CellTiter-Glo® reagent were added to each well of the treated cells and plates were shaken on an orbital plate shaker for 2 mins. Plates were incubated without shaking for 30 more mins and read in a luminometer with an integration time of 0.5 seconds per well. Percent inhibition of cell growth was calculated relative to vehicle-treated control wells. Concentration of compound that inhibits 50% of vehicle control cell growth (IC50) was interpolated using nonlinear regression (Levenberg-Marquardt) and the equation, y=V max*(1−(x/(K+x)))+Y2, where “K” was equal to the IC50.

For experiment [3], the system named is BT474 tumor cells. Description: Method B: CellTiter-Glo Growth Inhibition Assay, BT474. To be noted: Homo sapiens, BT-474, 72 h, 3 days. The format is cell-based. The procedure: as §2
Experiment [4] has as its system HN5 tumor cells. Description: Method B: CellTiter-Glo Growth Inhibition Assay, HN5. Type of experiment: cell-based. To be noted: Homo sapiens, 72 h, 3 days. The procedure: as §2
For experiment [5], the system named is Colo205 tumor cells. Description: Method A: Methylene Blue Growth Inhibition Assay, Colo205. To be noted: Homo sapiens, COLO 205, 72 h, 3 days. Type of experiment: cell-based. The method, then: (§3) Human breast (BT474) and head and neck (HN5) tumor cells were cultured in low glucose DMEM (Life Technologies 12320-032) containing 10% fetal bovine serum (FBS). Human colon tumor cells (Colo205) were cultured in DMEM (Invitrogen, 10564) containing 10% FBS. The SV40 transformed human mammary epithelial cell line HB4a was transfected with either human H-ras cDNA (HB4a r4.2) or the human c-ErbB2 cDNA (HB4a c5.2). The HB4a clones were cultured in RPMI containing 10% FBS, insulin (5 g/mL), hydrocortisone (5 g/mL), supplemented with the selection agent hygromycin B (50 g/mL). All lines were grown in a humidified incubator at 37° C. in 95% air, 5% CO2. Cells were harvested using trypsin/EDTA, counted using a haemocytometer, and plated in 100 μL of the appropriate media, at the following densities, in a 96-well tissue culture plate (Falcon 3075): BT474 10,000 cells/well, HN5 3,000 cells/well. The next day, compounds were diluted in DMEM containing […] gentamicin, at twice the final required concentration, from 10 mM stock solutions in DMSO. 100 μl/well of these dilutions were added to the 100 μL of media currently on the cell plates. Medium containing 0.6% DMSO was added to control wells. Compounds diluted in DMEM were added to all cell lines. The final concentration of DMSO in all wells was 0.3%. Cells were returned to the incubator (37° C., […]) for 3 days. Medium was then removed by aspiration. Cell biomass was estimated by staining cells with 90 μL/well methylene blue (Sigma M9140, 0.5% in 1:1 EtOH:H2O), and incubation at room temperature for at least 30 minutes. Stain was removed, and the plates rinsed by immersion in deionized H2O and air-dried. To release stain from the cells 100 μL of solubilization solution were added (1% N-lauroyl sarcosine, sodium salt, Sigma L5125, in PBS), and plates were shaken gently for about 30 minutes. Optical density at 620 nm was measured on a microplate reader. Percent inhibition of cell growth was calculated relative to vehicle-treated control wells. Concentration of compound that inhibits 50% of control cell growth (IC50) was interpolated using nonlinear regression (Levenberg-Marquardt) and the equation,
(§4) y=Vmax*(1−(x/(K+x)))+Y2, where “K” was equal to the IC50.

The test system of experiment [6] is BT474 tumor cells. Description: Method A: Methylene Blue Growth Inhibition Assay, BT474. The format is cell-based. To be noted: Homo sapiens, BT-474, 72 h, 3 days. The method, then:
as §3, §4

Experiment [7] deals with HN5 tumor cells. Description: Method A: Methylene Blue Growth Inhibition Assay, HN5. To be noted: Homo sapiens, 72 h, 3 days. The format is cell-based. The procedure:
as §3, §4

T1 sequence (P00533 25-1210): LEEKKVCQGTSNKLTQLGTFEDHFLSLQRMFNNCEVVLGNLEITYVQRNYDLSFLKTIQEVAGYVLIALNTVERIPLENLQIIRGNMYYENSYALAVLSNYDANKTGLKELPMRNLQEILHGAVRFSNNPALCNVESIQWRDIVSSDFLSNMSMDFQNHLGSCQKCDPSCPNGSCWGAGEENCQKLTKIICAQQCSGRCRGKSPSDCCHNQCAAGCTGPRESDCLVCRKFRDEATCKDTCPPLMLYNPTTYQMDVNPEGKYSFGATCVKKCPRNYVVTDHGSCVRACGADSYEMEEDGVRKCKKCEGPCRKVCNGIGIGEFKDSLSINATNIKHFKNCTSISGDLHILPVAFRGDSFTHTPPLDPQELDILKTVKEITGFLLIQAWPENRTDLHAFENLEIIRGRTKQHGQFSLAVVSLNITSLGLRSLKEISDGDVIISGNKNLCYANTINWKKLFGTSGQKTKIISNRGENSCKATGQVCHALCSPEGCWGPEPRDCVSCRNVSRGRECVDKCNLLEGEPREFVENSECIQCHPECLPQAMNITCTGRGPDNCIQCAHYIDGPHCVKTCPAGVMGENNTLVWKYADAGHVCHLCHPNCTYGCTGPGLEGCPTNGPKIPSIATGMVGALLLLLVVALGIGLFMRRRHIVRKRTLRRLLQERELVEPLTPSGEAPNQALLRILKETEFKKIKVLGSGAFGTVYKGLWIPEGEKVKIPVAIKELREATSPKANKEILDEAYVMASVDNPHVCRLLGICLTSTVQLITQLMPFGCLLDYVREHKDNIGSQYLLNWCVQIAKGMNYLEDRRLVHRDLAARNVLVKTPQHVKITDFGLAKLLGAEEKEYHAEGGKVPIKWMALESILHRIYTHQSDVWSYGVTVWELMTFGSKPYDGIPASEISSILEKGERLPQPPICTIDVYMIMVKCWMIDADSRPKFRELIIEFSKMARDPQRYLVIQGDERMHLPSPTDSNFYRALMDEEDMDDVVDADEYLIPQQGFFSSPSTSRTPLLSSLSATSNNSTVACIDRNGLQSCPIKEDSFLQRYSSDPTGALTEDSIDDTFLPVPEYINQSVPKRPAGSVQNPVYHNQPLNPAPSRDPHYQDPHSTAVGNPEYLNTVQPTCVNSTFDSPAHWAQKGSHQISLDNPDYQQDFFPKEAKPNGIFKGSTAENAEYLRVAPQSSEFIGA
T2 sequence (P04626 23-1255): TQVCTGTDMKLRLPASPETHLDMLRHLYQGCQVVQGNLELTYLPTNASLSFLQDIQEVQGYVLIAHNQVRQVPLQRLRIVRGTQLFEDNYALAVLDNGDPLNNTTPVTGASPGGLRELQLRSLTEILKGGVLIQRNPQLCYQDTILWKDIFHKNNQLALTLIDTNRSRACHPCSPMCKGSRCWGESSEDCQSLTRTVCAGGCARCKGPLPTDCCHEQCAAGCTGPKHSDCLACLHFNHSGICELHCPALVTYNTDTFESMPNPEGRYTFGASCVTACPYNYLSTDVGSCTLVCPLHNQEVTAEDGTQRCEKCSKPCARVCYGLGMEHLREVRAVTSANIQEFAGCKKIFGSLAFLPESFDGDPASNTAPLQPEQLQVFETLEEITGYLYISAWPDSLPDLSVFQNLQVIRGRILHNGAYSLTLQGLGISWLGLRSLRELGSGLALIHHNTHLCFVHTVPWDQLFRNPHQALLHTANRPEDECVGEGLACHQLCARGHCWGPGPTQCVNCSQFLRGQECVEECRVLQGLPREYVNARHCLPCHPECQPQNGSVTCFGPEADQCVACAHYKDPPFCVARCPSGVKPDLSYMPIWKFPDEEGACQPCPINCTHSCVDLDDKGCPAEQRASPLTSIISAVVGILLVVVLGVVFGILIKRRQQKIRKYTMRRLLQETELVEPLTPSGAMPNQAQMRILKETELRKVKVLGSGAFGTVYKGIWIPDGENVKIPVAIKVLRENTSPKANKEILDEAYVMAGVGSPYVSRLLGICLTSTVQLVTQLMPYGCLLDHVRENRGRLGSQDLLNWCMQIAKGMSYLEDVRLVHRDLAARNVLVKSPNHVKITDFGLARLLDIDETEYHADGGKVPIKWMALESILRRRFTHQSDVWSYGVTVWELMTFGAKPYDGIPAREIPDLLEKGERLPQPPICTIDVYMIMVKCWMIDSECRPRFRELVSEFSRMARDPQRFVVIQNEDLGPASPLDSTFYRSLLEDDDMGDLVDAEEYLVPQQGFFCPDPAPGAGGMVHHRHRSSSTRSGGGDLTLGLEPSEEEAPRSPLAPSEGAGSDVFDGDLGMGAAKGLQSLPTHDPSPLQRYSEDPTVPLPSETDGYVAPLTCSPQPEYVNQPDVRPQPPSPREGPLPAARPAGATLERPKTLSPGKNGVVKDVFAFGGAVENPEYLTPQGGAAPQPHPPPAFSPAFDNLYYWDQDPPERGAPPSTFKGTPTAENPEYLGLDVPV

The IC50 is the concentration at which inhibition is half-maximal. In the case of `Cc1cc(Nc2nccc(-c3sc(N(C)C)nc3-c3cccc(NC(=O)c4c(F)cccc4F)c3)n2)ccc1CC1CCNCC1` [Example 42, N-{3-[2-(Dimethylamino)-5-(2-{[3-methyl-4-(4-piperidinylmethyl)phenyl]amino}-4-pyrimidinyl)-1,3-thiazol-4-yl]phenyl}-2,6-difluorobenzamide], the IC50 on EGFR was less than 0.1 µM; in the experiment with SK-MEL-28 tumor cells, greater than 1 µM; on ErbB2, less than 0.1 µM; with Colo205 tumor cells [1] it was greater than 1 µM; at B-Raf, 0.1 to 1 µM.
`Cc1cc(-c2sc(N)nc2-c2cccc(NC(=O)c3c(F)cccc3F)c2)nc(Nc2cccc(OCCN(C)C)c2)n1` [Example 49, N-[3-(2-Amino-5-{2-[(3-{[2-(dimethylamino)ethyl]oxy}phenyl)amino]-6-methyl-4-pyrimidinyl}-1,3-thiazol-4-yl)phenyl]-2,6-difluorobenzamide]: the IC50 at EGFR is less than 0.1 µM; in the experiment on Colo205 tumor cells [2], greater than 1 µM; on ErbB2 it was 0.1 to 1 µM; in the experiment on BT474 tumor cells [3], 0.1 to 1 µM; on B-Raf, greater than 1 µM; with HN5 tumor cells [4] it was 0.1 to 1 µM.
As to `COCCOc1ccc(Nc2nccc(-c3sc(N)nc3-c3cccc(NC(=O)c4cccn4C)c3)n2)cc1F` [Example 66, N-[3-(2-Amino-5-{2-[(3-fluoro-4-{[2-(methyloxy)ethyl]oxy}phenyl)amino]-4-pyrimidinyl}-1,3-thiazol-4-yl)phenyl]-1-methyl-1H-pyrrole-2-carboxamide], the IC50 at EGFR was less than 0.1 µM; in the experiment with Colo205 tumor cells [5] it was 0.1 to 1 µM; with BT474 tumor cells [6], less than 0.1 µM; in the experiment on HN5 tumor cells [7], less than 0.1 µM; at ErbB2, less than 0.1 µM; against B-Raf, greater than 1 µM.
On to `Nc1nc(-c2cccc(OCc3ccccc3)c2)c(-c2ccnc(Nc3cccc(-c4cnco4)c3)n2)s1` [Example 69, 4-(2-Amino-4-{3-[(phenylmethyl)oxy]phenyl}-1,3-thiazol-5-yl)-N-[3-(1,3-oxazol-5-yl)phenyl]-2-pyrimidinamine], for which the IC50 on EGFR was less than 0.1 µM; in the experiment with Colo205 tumor cells [5] it was greater than 1 µM; with BT474 tumor cells [6], 0.1 to 1 µM; in the experiment on HN5 tumor cells [7] it was 0.1 to 1 µM; at ErbB2, less than 0.1 µM; on B-Raf, greater than 1 µM.
